From US20180168208A1 (priority 2014, published 2018)
Like-named read-outs stand apart in the source and are kept apart here.

Key:
T1R1/T1R3 receptor [1] = target: T1, T1R1/T1R3 receptor (Felis catus, UniProt E3UMS2); test: Example 8: PAM screening of transmembrane compounds with GMP and Ala on T1R1/T1R3 in HEK293 cells; assay type: cell-based, cat; settings: in the presence of GMP and Alanine
Source text: HEK293 cells that stably express T1R3 and inducibly express T1R1 were exposed to transmembrane compound alone or in combination with Ala and GMP to activate the umami receptor. Activation of the T1R1/T1R3 receptor was detected by a change in intracellular calcium levels using a calcium sensitive fluorescent dye and/or a luminescent reporter system. […] A FLIPR® Tetra or a FlexStation® 3 was used for data capture.
Dose response curves were generated for each transmembrane compound at concentrations of 0 (buffer only), 0.01, 0.1 and 1 mM, wherein each of the three concentrations of transmembrane compound was tested in combination with 0.03 mM GMP+100 mM Ala (T1); 0.6 mM GMP+10 mM Ala (T2); 0.1 mM GMP+60 mM Ala (T3) and 0.3 mM GMP+60 mM Ala (T4). The T4 mixture was also tested in a 2-fold dilution series (the T4(×) Concentration). In these experiments, the first test concentration was 2× (2 times) the T4 concentration. The subsequent test concentrations were 2-fold dilutions from that (1×, 0.5×etc.). This dilution series was tested with or without the addition of the test compound at a constant 0.3 mM concentration.
Activation of the umami receptor was also determined in the presence of 1 mM GMP+100 mM Ala to generate a “maximum” umami receptor activation level.

T1R1/T1R3 receptor [2] = target: T1, T1R1/T1R3 receptor; test: cell-based
Source text: HEK293 cells that stably express T1R3 and inducibly express T1R1 were exposed to nucleotide derivatives alone to activate the umami receptor. Activation of the T1R1/T1R3 receptor was detected by a change in intracellular calcium levels using a calcium sensitive fluorescent dye. Cells that express T1R3 but not T1R1 were used as a control. A FLIPR® Tetra or a FlexStation® 3 was used for data capture.
HEK293 cells that stably express T1R3 and inducibly express T1R1 were exposed to nucleotide derivatives alone or in combination with one or more amino acids and/or one or more nucleotides to activate the umami receptor. Activation of the T1R1/T1R3 receptor was detected by a change in intracellular calcium levels using a calcium sensitive fluorescent dye and/or a luminescent reporter system. Cells that express T1R3 but not T1R1 were used as a control. A FLIPR® Tetra or a FlexStation® 3 was used for data capture.
(§1) HEK293 cells that stably express T1R3 and inducibly express T1R1 were exposed to transmembrane compounds alone or in combination with one or more amino acids and/or one or more nucleotides to activate the umami receptor. Activation of the T1R1/T1R3 receptor was detected by a change in intracellular calcium levels using a calcium sensitive fluorescent dye. Cells that express T1R3 but not T1R1 were used as a control. A FLIPR® Tetra or a FlexStation® 3 was used for data capture.
(§2) In each experiment, serial dilutions of up to 10 mM of the transmembrane compound were added to the T1R1/T1R3-expressing cells.

cat T1R1/T1R3 receptor = target: T2, cat T1R1/T1R3 receptor (Felis catus, UniProt A0ABI7Z2I4); test: cell-based
T2 sequence (A0ABI7Z2I4 171-420): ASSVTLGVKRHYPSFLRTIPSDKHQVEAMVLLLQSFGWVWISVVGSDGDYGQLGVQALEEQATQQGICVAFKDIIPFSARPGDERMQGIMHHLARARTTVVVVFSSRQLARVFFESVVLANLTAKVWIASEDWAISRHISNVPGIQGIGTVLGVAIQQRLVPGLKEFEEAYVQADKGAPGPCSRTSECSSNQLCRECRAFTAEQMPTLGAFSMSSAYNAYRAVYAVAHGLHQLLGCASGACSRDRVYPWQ
T2 sequence (Q49KI5 25-865 E206Q/N523D/F654L partner): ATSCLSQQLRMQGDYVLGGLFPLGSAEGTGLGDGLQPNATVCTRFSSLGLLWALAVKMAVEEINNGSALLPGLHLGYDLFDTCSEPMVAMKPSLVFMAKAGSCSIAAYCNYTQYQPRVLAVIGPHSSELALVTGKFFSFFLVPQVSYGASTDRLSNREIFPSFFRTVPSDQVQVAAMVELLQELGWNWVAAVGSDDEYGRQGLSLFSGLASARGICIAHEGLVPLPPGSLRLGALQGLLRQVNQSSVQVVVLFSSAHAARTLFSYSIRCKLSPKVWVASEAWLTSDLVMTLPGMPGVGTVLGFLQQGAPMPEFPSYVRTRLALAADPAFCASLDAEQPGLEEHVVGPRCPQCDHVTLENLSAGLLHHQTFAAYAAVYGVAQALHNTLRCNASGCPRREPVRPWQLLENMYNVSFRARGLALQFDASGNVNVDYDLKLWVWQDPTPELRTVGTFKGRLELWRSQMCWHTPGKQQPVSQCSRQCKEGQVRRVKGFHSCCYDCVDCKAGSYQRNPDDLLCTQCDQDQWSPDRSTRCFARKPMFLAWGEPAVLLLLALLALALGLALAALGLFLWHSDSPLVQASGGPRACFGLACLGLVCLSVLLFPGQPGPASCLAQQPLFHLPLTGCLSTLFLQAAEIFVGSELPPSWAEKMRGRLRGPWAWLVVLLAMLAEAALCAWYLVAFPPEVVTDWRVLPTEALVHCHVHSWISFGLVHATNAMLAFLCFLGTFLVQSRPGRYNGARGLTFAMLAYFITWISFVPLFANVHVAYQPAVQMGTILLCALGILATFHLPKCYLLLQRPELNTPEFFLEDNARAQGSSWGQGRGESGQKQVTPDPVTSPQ
How it was run: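 HEK293 cells stably expressing T1R3 with inducible T1R1, treated with nucleotide derivatives alone or combined with amino acids and/or nucleotides. Activation read as intracellular calcium change by calcium-sensitive fluorescent dye and/or luminescent reporter. Cells expressing T1R3 without T1R1 served as control.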

T1R1/T1R3 receptor [3] = target: T1, T1R1/T1R3 receptor; test: cell-based; assay type: cell-based
Source text: as §1, §2

[4] = EC50 (effect with 0.2 mM IMP), control compounds, with 0.2 mM IMP, Table 25
[5] = EC50 (mM), +IMP (0.2 mM), in the presence of 0.2 mM IMP
[6] = in the presence of 0.2 mM IMP, relative to alanine
[7] = threshold concentration in the presence of 0.2 mM IMP
[8] = alone in buffer, read-out: T1R1/T1R3 EC50 alone in buffer
[9] = compound alone in buffer, read-out: EC50 (mM), +buffer (alone)
[10] = EC50 (effect with 0.2 mM IMP), positive controls measured with 0.2 mM IMP
[11] = EC50 (mM), +Alanine (20 mM) + IMP (0.2 mM), in the presence of 20 mM alanine and 0.2 mM IMP

SMILES | EC50 (T1R1/T1R3 receptor [2]; [4]) | EC50 (T1R1/T1R3 receptor [2]; [5]) | Max resp % of Ala, +IMP (0.2 mM) (T1R1/T1R3 receptor [2]; [6]) | Thres (mM), +IMP (0.2 mM) (T1R1/T1R3 receptor [2]; [7]) | EC50 (cat T1R1/T1R3 receptor; read-out: EC50) | EC50 (T1R1/T1R3 receptor [3]; [10]) | other results
O=C(CN1C(=O)C(=O)N(Cc2ccccc2)C1=O)c1ccc(Cl)s1 [1-benzyl-3-(2-(5-chlorothiophen-2-yl)-2-oxoethyl)imidazolidine-2,4,5-trione] |  |  |  |  |  |  | PAM profile assessment (PAM activity) (T1R1/T1R3 receptor [1]): PAM activity
N[C@@H](Cc1ccc(O)cc1)C(=O)O [L-Tyrosine, tyrosine] | 9.3 ± 1.7 mM | 9.3 mM | 38.0% | 3.0 mM | 10300 ± 900 µM |  | 
O=P(O)(O)OP(=O)(O)OP(=O)(O)OC[C@H]1O[C@@H](n2cnc3c(Cl)ncnc32)[C@H](O)[C@@H]1O [6-Chloropurine riboside-5′-O-triphosphate] |  |  | 30.2% | 0.003 mM |  |  | Max resp % of IMP, +Alanine (20 mM) (T1R1/T1R3 receptor [2]): 50.4%; Thres (mM), +Alanine (20 mM) (T1R1/T1R3 receptor [2]): 0.01 mM; EC50 (T1R1/T1R3 receptor [2]; [8]): > 0.03 mM; EC50 (T1R1/T1R3 receptor [2]; [9]): > 0.3 mM; Activity (T1R1/T1R3 receptor [2]; overall call: active or N/A (not active) on T1R1/T1R3): active; EC50 (T1R1/T1R3 receptor [2]; read-out: EC50 (mM), +Alanine (20 mM)): > 0.3 mM; EC50 (T1R1/T1R3 receptor [2]; read-out: EC50 (mM), +Alanine (20 mM) + IMP (0.2 mM)): > 0.3 mM; EC50 (T1R1/T1R3 receptor [2]; read-out: EC50 (mM), +IMP (0.2 mM), in the presence of 0.2 mM IMP): > 0.3 mM; EC50 (T1R1/T1R3 receptor [2]; read-out: T1R1/T1R3 EC50 +0.2 mM IMP, +0.2 mM IMP): > 0.03 mM; EC50 (T1R1/T1R3 receptor [2]; read-out: T1R1/T1R3 EC50 +20 mM L-alanine): > 0.03 mM; EC50 (T1R1/T1R3 receptor [2]; read-out: T1R1/T1R3 EC50 +20 mM L-alanine + 0.2 mM IMP): > 0.03 mM; EC50 (cat T1R1/T1R3 receptor): > 30 µM; Threshold (cat T1R1/T1R3 receptor): 0.01 mM
N[C@@H](Cc1ccccc1)C(=O)O [L-Phenylalanine, reference compound] | 0.5 ± 0.1 mM | 0.5 mM | 75.9% | 0.1 mM | 1900 ± 100 µM | 1900 ± 100 µM | Max resp ΔF/F, +IMP (0.2 mM) (T1R1/T1R3 receptor [2]; in the presence of 0.2 mM IMP): 0.5900 ΔF/F
N[C@@H](Cc1c[nH]c2ccccc12)C(=O)O [L-Tryptophan, tryptophan] | 0.5 ± 0.1 mM | 0.5 mM | 86.8% | 0.1 mM | 900 ± 100 µM | 900 ± 100 µM | 
Nc1nc2c(ncn2[C@@H]2O[C@H](COP(=O)(O)O)[C@@H](O)[C@H]2O)c(=O)[nH]1 [GMP, guanosine monophosphate, reference compound] | 0.09 ± 0.02 mM |  |  |  |  | 50 ± 4 µM | EC50 (cat T1R1/T1R3 receptor): 20 µM; Threshold (cat T1R1/T1R3 receptor): 0.008 mM; EC50 (T1R1/T1R3 receptor [3]): 50 ± 20 µM; EC50 (T1R1/T1R3 receptor [3]; alone in buffer, read-out: EC50 - alone): 40 ± 10 µM
CSCC[C@H](N)C(=O)O [L-Methionine, methionine] |  |  |  |  |  | 25500 ± 3700 µM | Max resp % of Ala, +IMP (0.2 mM) (T1R1/T1R3 receptor [2]): 45.0%; Thres (mM), +IMP (0.2 mM) (T1R1/T1R3 receptor [2]): 30.0 mM; EC50 (T1R1/T1R3 receptor [2]; EC50 (effect with 0.2 mM IMP)): 33.9 ± 1.5 mM; EC50 (T1R1/T1R3 receptor [2]; EC50 (mM), +IMP (0.2 mM)): 33.9 mM; EC50 (cat T1R1/T1R3 receptor): 25500 ± 3700 µM
N[C@@H](CO)C(=O)O [L-Serine, serine] | 15.1 ± 2.3 mM | 15.1 mM | 100.0% | 3.0 mM | 31500 ± 2300 µM | 31500 ± 2300 µM | 
N[C@@H](CS)C(=O)O [L-Cysteine, cysteine] | 43.9 ± 5.6 mM | 43.9 mM | 74.6% | 10.0 mM | 39500 ± 1900 µM | 39500 ± 1900 µM | Max resp ΔF/F, +IMP (0.2 mM) (T1R1/T1R3 receptor [2]; in the presence of 0.2 mM IMP): 0.5800 ΔF/F
CC(C)CC(NC(=O)c1ccccc1)C(N)=O (racemic) |  |  | 204.5% | 0.1 mM |  |  | Max resp % of IMP, +Alanine (20 mM) (T1R1/T1R3 receptor [2]): 125.5%; Thres (mM), +Alanine (20 mM) (T1R1/T1R3 receptor [2]): 0.3 mM; EC50 (T1R1/T1R3 receptor [2]; [11]): 0.91 mM
O=C(CN1C(=O)C(=O)N(Cc2ccccc2)C1=O)c1ccc2c(c1)OCCCO2 [1-benzyl-3-(2-(3,4-dihydro-2H-benzo[b][1,4]dioxepin-7-yl)-2-oxoethyl)imidazolidine-2,4,5-trione] |  |  |  |  |  |  | PAM profile assessment (PAM activity) (T1R1/T1R3 receptor [1]): PAM activity
N[C@@H](Cc1c[nH]cn1)C(=O)O [L-Histidine, L-histidine] | 15.3 ± 3.2 mM | 15.3 mM | 36.3% | 10.0 mM | 10200 ± 1700 µM | 10200 ± 1700 µM | 
O=C(NCCc1ccccc1)c1cccnc1 [N-phenethylnicotinamide] |  | 0.35 mM | 149.5% | 0.03 mM |  |  | Max resp % of IMP, +Alanine (20 mM) (T1R1/T1R3 receptor [2]): 83.6%; Thres (mM), +Alanine (20 mM) (T1R1/T1R3 receptor [2]): 0.1 mM; EC50 (T1R1/T1R3 receptor [2]; [11]): 0.22 mM; EC50 (T1R1/T1R3 receptor [2]; T1R1/T1R3 EC50 +0.2 mM IMP, +0.2 mM IMP): 0.35 ± 0.1 mM; EC50 (T1R1/T1R3 receptor [2]; [8]): 0.37 ± 0.02 mM; EC50 (T1R1/T1R3 receptor [2]; [9]): 0.37 mM
